Test results from publication PMC8398472, “Anticancer Diiron Vinyliminium Complexes: A Structure–Activity Relationship Study” (Pharmaceutics, 2021).
Where “and” joins values, the source holds several entries; their conditions need not be identical. Equal values may be shown once. Read-outs that look alike come from different tables or passages of the source.

Experiments:
[1] = cited from earlier work; for Log Pow: previously determined
[2] = tested on: human ovarian carcinoma cisplatin-sensitive A2780; design: method as in PMID 31441186; conditions: previously determined on the same cell line; cited from earlier work
[3] = tested on: human ovarian carcinoma cisplatin-resistant A2780cisR; assay: Cytotoxicity, WST-1 cell viability assay, A2780cisR; format: cell-based; conditions: 72 h exposure
Method: (§1) In vitro cytotoxicity investigations were carried out by using human ovarian carcinoma cisplatin-sensitive A2780 (ECACC93112519), human ovarian carcinoma cisplatin-resistant A2780cisR (ECACC 93112517) and mouse embryo fibroblasts Balb/3T3 clone A31 (ATCC CCL-163) cell lines. A2780 and A2780cisR were purchased from the European Collection of Authenticated Cell Cultures (ECACC), and Balb/3T3 clone A31 cell line from the American Type Culture Collection (ATCC).
(§2) A2780 and A2780cisR cells were routinely cultured in RPMI 1640 (Merck) containing 2 mM of L-glutamine (Merck), 1% of penicillin/streptomycin solution (Merck—10 000 U mL^−1: 10 mg mL^−1), 10% of fetal bovine serum (Merck—FBS) and antimycotic (InvivoGen, USA), and Balb/3T3 clone A31 in Dulbecco’s modified Eagle medium (Merck—DMEM) supplemented with 4 mM of L-glutamine, 1% of penicillin/streptomycin solution, 10% of calf serum (Merck) and antimycotic. […] The cultures were maintained at 37 °C and in a 5% CO2-enriched atmosphere.
(§3) A2780, A2780cisR and Balb/3T3 clone A31 cells were seeded in 96-well tissue culture polystyrene plates at a concentration of 3 × 10^3, 6 × 10^3 and 1 × 10^3 cells per well, respectively. After overnight incubation, the cells were treated with different concentrations (0–100 µM) of the selected compounds for 72 h at 37 °C in a 5% atmosphere of CO2. Stock solutions of compounds were prepared in DMSO and sequentially diluted in medium (final DMSO concentration of 0.5%). […] At the end of the incubation time, cell viability was assessed by means of WST-1 tetrazolium salt reagent (Roche). Briefly, cells were incubated for 4 h with the tetrazolium salt reagent diluted 1:10, at 37 °C and 5% CO2. Measurements of formazan dye absorbance, which directly correlates with the number of viable cells, were carried out with a micro-plate reader (Biorad) at 450 nm, using 655 nm as reference wavelength. The 50% inhibitory concentration (IC50) refers to compound concentration at which 50% of cell death is observed with respect to the control. For each tested compound, assay was performed on triplicate. The concentration effect curves were generated by nonlinear regression curves (GraphPad Prism Software, 2021) and the data reported as mean ± standard deviation.

[4] = tested on: human ovarian carcinoma cisplatin-sensitive A2780; assay: Cytotoxicity, WST-1 cell viability assay, A2780; format: cell-based; conditions: for IC50: 72 h exposure; for Selectivity index (S.I.): ratio between IC50 for Balb/3T3 and IC50 for A2780
Method: as §1, §2, §3

[5] = tested on: mouse embryo fibroblasts Balb/3T3 clone A31; assay: Cytotoxicity, WST-1 cell viability assay, Balb/3T3 clone A31; format: cell-based; conditions: 72 h exposure
Method: as §1, §2, §3

[6] = Stability in DMSO-d6/D2O or D2O solution at 37 °C for 72 h (1H NMR); format: physicochemical; conditions: 72 h at 37 °C
Method: (§4) • (a) Solubility in D2O. A suspension of the selected diiron compound (3–5 mg) in a D2O solution (ca. 1 mL) containing Me2SO2 (3.36 × 10^−3 M) as internal standard was vigorously stirred at 21 °C for 1.5 h. The resulting saturated solution was filtered over celite, transferred into an NMR tube and then analyzed by ^1H NMR spectroscopy (delay time = 3 s; number of scans = 20). The concentration (solubility) was calculated by the relative integral (related to Cp and/or NMe signals) with respect to Me2SO2 (δ = 3.14 ppm). • (b) Stability in DMSO-d6/D2O solution. The selected diiron compound (ca. 4 mg) was added of 1 mL of D2O (3a,c) or DMSO-d6/D2O (2:1 v/v) mixture (2a,c, 3b, 4a–c, 5a–c, 6a–c, 7), containing Me2SO2 (3.36 × 10^−3 M). The resulting mixture was stirred for 30 min and then filtered over celite; the filtrated solution was transferred into an NMR tube. The sample was analyzed by ^1H NMR (time = 0) and then heated at 37 °C for 72 h. After cooling to room temperature, the solution was separated from a small amount of solid by filtration over celite, and the new ^1H NMR spectrum was recorded (delay time = 3 s; number of scans = 20). In every case, no newly formed organometallic species was detected. The amount of starting material in solution (% with respect to the initial spectrum) was calculated by the relative integral (vs. Cp and/or NMe signals) with respect to Me2SO2 as internal standard.

[7] = Octanol–water partition coefficient (shake-flask, UV–Vis); format: physicochemical; conditions: 21 °C
Method: • (c) Octanol–water partition coefficients (Log Pow). Partition coefficients (Pow; IUPAC: KD partition constant), defined as Pow = corg/caq, where corg and caq are molar concentrations of the selected compound in the organic and aqueous phase, respectively, were determined by the shake-flask method and UV–Vis measurements. Deionized water and 1-octanol were vigorously stirred for 24 h to enable saturation of both phases, then separated by centrifugation. A stock solution of the selected diiron compound (ca. 2 mg; 2a–c, 3b, 4a–c, 5a, 5c, 6b,c, 7) was prepared by first adding acetone (50 μL, to help solubilization), followed by water-saturated octanol (2.5 mL). The solution was diluted with water-saturated octanol (ca. 1:3 v/v ratio, cFe2 ≈ 10^−4 M, so that 1.5 ≤ A ≤ 2.0 at λmax) and the UV–Vis spectrum was recorded (A^0org). An aliquot of the solution (Vorg = 1.2 mL) was transferred into a test tube and octanol-saturated water (Vorg = Vaq = 1.2 mL) was added. The mixture was vigorously stirred for 15 min at 21 °C and then centrifuged (5000 rpm, 10 min). The UV–Vis spectrum of the organic phase was recorded (A^forg) and the partition coefficient was calculated as Pow = A^forg/(A^0org − A^forg), where A^0org and A^forg are the absorbance in the organic phase before and after partition with the aqueous phase, respectively. An inverse procedure was followed for 3a, 3c, 5b and 6a, starting from a solution of the compound in octanol-saturated water. The partition coefficient was calculated as Pow = (A^0aq − A^faq)/A^faq where A^0aq and A^faq are the absorbance in the aqueous phase before and after partition with the organic phase, respectively. The wavelength of the maximum absorption of each compound (ca. 300 nm) was used for UV–Vis quantitation. The procedure was repeated three times for each sample (from the same stock solution); results are given as mean ± standard deviation.

[8] = Solubility in D2O by 1H NMR (Me2SO2 internal standard); format: physicochemical; conditions: for Solubility: 21 °C
Method: as §4

Compound	IC50 [4]	IC50 [5]	Stability % (residual % of starting material) ([6]; DMSO-d6/D2O (2:1 v/v))	Selectivity index (S.I.) [4]	Log Pow [7]	Solubility [8]	other results
O=C1C=CC(=O)c2ccccc21 [Naphthoquinone]	–	–	–	–	–	–	Log P ([1]; literature value): 1.71
CC1=[C](C)[Fe+]2(=[C]=O)[C](=O)[Fe+]2[C]1=[N+](C)c1c(C)cccc1C.O=S(=O)([O-])C(F)(F)F.c1cc[cH-]c1.c1cc[cH-]c1 (stereo not shown) [[Fe2Cp2(CO)(μ-CO){μ-η^1:η^3-C^3(Me)C^2(Me)C^1NMe(Xyl)}]CF3SO3]	–	–	–	–	–	–	IC50 [2]: 0.5 ± 0.06 µM; Log Pow [1]: 0.0
Cc1cccc(C)c1[N+](C)=[C]1C=[C](c2ccccc2)[Fe+]2(=[C]=O)[C](=O)[Fe+]12.O=S(=O)([O-])C(F)(F)F.c1cc[cH-]c1.c1cc[cH-]c1 (stereo not shown) [[Fe2Cp2(CO)(μ-CO){μ-η^1:η^3-C^3(Ph)C^2HC^1NMe(Xyl)}]CF3SO3]	–	–	–	–	–	–	IC50 [2]: 0.9 ± 0.06 µM; Log Pow [1]: 0.4
N.N.[Cl][Pt][Cl] [cisplatin, reference compound]	0.4 ± 0.07 µM	0.8 ± 0.2 µM	–	–	–	–	IC50 [3]: 26 ± 3 µM
[Fe2Cp2(CO)(μ-CO){μ-η^1:η^3-C^3(Et)C^2(Et)C^1NMe(CH2Ph)}]CF3SO3 [Compound 5c]	3.75 ± 0.14 µM	90 ± 8 µM	84%	24	0.13 ± 0.01	1.10 × 10^−3 mol·L^−1 and 0.73 g·L^−1	–
[Fe2Cp2(CO)(μ-CO){μ-η^1:η^3-C^3(Me)C^2(Me)C^1NMe(CH2CH = CH2)}]CF3SO3 [Compound 3c]	~17 µM and 17 µM	> 100 µM	–	>5.9	−0.77 ± 0.01	6.89 × 10^−3 mol·L^−1 and 4.02 g·L^−1	Stability % (residual % of starting material) ([6]; neat D2O): 85 ^a %
[Fe2Cp2(CO)(μ-CO){μ-η^1:η^3-C^3(Me)C^2HC^1N(CH2Ph)2}]CF3SO3 [Compound 2a]	2 ± 0.7 µM	14 ± 4 µM	81%	7	0.45 ± 0.04	–	–
[Fe2Cp2(CO)(μ-CO){μ-η^1:η^3-C^3(Me)C^2HC^1NMe2}]CF3SO3	–	–	–	–	–	–	IC50 [2]: 35 ± 3 µM; Log Pow [1]: −0.3
[Fe2Cp2(CO)(μ-CO){μ-η^1:η^3-C^3(Me)C^2HC^1NMe(4-C6H4OMe)}]CF3SO3 [Compound 6a]	3.5 ± 0.5 µM	94 ± 4 µM	94%	27	−0.46 ± 0.01	2.22 × 10^−3 mol·L^−1 and 1.41 g·L^−1	–
[Fe2Cp2(CO)(μ-CO){μ-η^1:η^3-C^3(Me)C^2HC^1NMe(CH2CH = CH2)}]CF3SO3 [Compound 3a]	17.7 ± 0.8 µM	> 100 µM	–	>5.6	−0.75 ± 0.01	6.43 × 10^−3 mol·L^−1 and 3.66 g·L^−1	Stability % (residual % of starting material) ([6]; neat D2O): 93 ^a %
[Fe2Cp2(CO)(μ-CO){μ-η^1:η^3-C^3(Me)C^2HC^1NMe(CH2Ph)}]CF3SO3 [Compound 5a]	7.1 ± 0.4 µM	> 100 µM	85%	>14	−0.26 ± 0.01	–	–
[Fe2Cp2(CO)(μ-CO){μ-η^1:η^3-C^3(Ph)C^2HC^1N(CH2Ph)2}]CF3SO3 [Compound 2b]	–	–	–	–	1.4 and 1.4 ± 0.2	–	Solubility in D2O (in words) [8]: almost insoluble in D2O
[Fe2Cp2(CO)(μ-CO){μ-η^1:η^3-C^3(Ph)C^2HC^1NMe(Cy)}]CF3SO3 [Compound 4b]	2.6 ± 0.3 µM	35 ± 3 µM	65%	13	0.41 ± 0.02	1.52 × 10^−3 mol·L^−1 and 1.02 g·L^−1	–
